According to patent US20060046968A1, “Prodrug substituted benzoxazoles as estrogenic agents” (priority 2004, published 2006):

Legend:
[1] = test system: Progesterone receptor mRNA; experiment: Progesterone receptor mRNA regulation in the preoptic area of the rat brain; assay type: in vivo; details: 10 mg/kg
[2] = Cytosolic incubation in the presence of PAPS (sulfation), rat; assay type: in vitro ADME
Method: These pilot incubations (1.0 mL incubation volume) were conducted using a substrate concentration of 100 μM ERB-041 at 37° C. for 60 mins. Incubations were terminated by the addition of an equal volume of chilled acetonitrile. Large-scale incubations (a total of 60 incubations @ 1.0 mL incubation volume) to generate sufficient quantities of the sulfate metabolites for structure elucidation were subsequently conducted as described above at 37° C. for 60 mins. Appropriate substrate controls and incubations without addition of PAPS were conducted. Additional incubations (a total of 120 @ 2.0 mL incubation volume, 50 μM ERB-041) were also conducted in a similar manner to isolate sufficient amounts of ERB-041-sulfates to enable full structural identification. Reserved phase-HPLC was utilized for all metabolite analysis. To confirm the formation of glucuronide and sulfate conjugates of ERB-041 in pilot scale incubations, HPLC analysis was performed using an Agilent 1100 LC system equipped with a diode array detector (Agilent Technologies, Wilmington, Del.). […] Rat liver and human liver cytosol incubations produced similar profiles. […] Further confirmation of the identity of the isolated metabolites […] and M9 from the large-scale incubations was obtained using LC-MS analysis (ESI, negative ionization). […]

[3] = Microsomal incubation in the presence of UDPGA (glucuronidation); assay type: in vitro ADME, rat; details: 100 μM, 37° C., 60 mins, with UDPGA
Method: An analytical scale incubation of ERB-041 with male SD rat liver microsomes in the presence of UDPGA was conducted in phosphate buffer (0.1 M, pH 7.4) containing 1 mg/mL rat liver microsomal protein with final concentrations of 5 mM magnesium chloride and 4 mM UDPGA. This pilot incubation (1.0 mL incubation volume) was conducted using a substrate concentration of 100 μM at 37° C. for 60 mins. Incubations were terminated by the addition of an equal volume of chilled acetonitrile. Large-scale incubations (a total of 37 incubations @ 5.0 mL incubation volume) to generate sufficient quantities of the glucuronide metabolites for structure elucidation were subsequently conducted as described above at 37° C. for 60 mins. Appropriate substrate controls and incubations without addition of UDPGA were also carried out. Reserved phase-HPLC was utilized for all metabolite analysis. To confirm the formation of glucuronide and sulfate conjugates of ERB-041 in pilot scale incubations, HPLC analysis was performed using an Agilent 1100 LC system equipped with a diode array detector (Agilent Technologies, Wilmington, Del.). […] Separation of the two metabolites was achieved using gradient solvent system B as described supra.

[4] = test system: human endometrial tissue implanted into ovariectomized athymic nude mice; experiment: Endometriosis test procedure: human endometrial tissue implanted into nude mice; assay type: in vivo, mouse
Method: This procedure is slightly modified from a published method [Bruner-Tran. et al., Journal of Clinical Investigation 99: 2851-2857 (1997)]. […] Lesions are allowed to establish for at least 10 days, then oral daily dosing begins and continues for at least 15 days. It should be noted that all mice have visible lesions at the start of dosing. At necropsy, the number of mice with lesions is determined, as well as the lesions per mouse.

[5] = test system: ovulation (number of oocytes ovulated); experiment: Ovulation inhibition test procedure; assay type: in vivo; details: 50 mg/kg
Description: The test procedure is used to determine whether test compounds can inhibit or change the timing of ovulation. It can also be used to determine the number of oocytes ovulated [Lundeen, et al., J Steroid Biochem Mol Biol 78: 137-143 (2001)]. The following data were obtained from representative metabolites of compounds from the invention (Table 22).

Female Mongolian gerbils = experiment: Transient global ischemia in the Mongolian gerbil: neurogranin mRNA in hippocampus; assay type: in vivo; details: gerbil hippocampus after 5 min global ischemia; s.c. daily
Method: Transient global ischemia in the Mongolian gerbil. The effect of test compounds on preventing or treating brain injury in response to oxygen deprivation/reperfusion were measured using the following test procedure.
Female Mongolian gerbils (60-80 g; Charles River Laboratories, Kingston, N.Y.) were housed in the Wyeth-Ayerst animal care facility Association for Assessment and Acreditation of Laboratory Animal Care (AAALAC) certified with a 12-hour light, 12-hour dark photoperiod and free access to tap water and a low-estrogen casein diet (Purina®; Richmond, Ind.). After acclimation (3-5 days), gerbils were anesthetized with isoflurane (2-3% mixture with O2), ovariectomized (Day 0). […] On Day 6, gerbils (n=4-5/group) were anesthetized with isoflurane, the common carotid arteries visualized via a mid-line neck incision and both arteries simultaneously occluded for 5 minutes with non-traumatic micro aneurysm clips. […]
The degree of neuronal protection was evaluated by in situ hybridization analysis of neurogranin mRNA. […]
Neurogranin mRNA was selected for these studies because it is highly expressed in the hippocampal neurons including CA1, but absent in glia and other cell types present in this brain region. […] The results from 6 sections (40 μm apart) per animal were averaged and statistically evaluated. […]

For `Oc1cc(Br)c2oc(-c3ccc(O)c(F)c3)nc2c1` [Example 21, 7-BROMO-2-(3-FLUORO-4-HYDROXYPHENYL)-1,3-BENZOXAZOL-5-OL], the “Progesterone receptor mRNA (mean ± stdev)” value [1] was 110.5 ± 19.3 arbitrary units.

With `C=Cc1cc(O)cc2nc(-c3ccc(O)c(F)c3)oc12` [Example 24, 2-(3-FLUORO-4-HYDROXYPH ENYL)-7-VI NYL-1,3-BENZOXAZOL-5-OL] the Metabolites detected ([2]; 100 μM, 37° C., 60 mins, with PAPS, rat liver cytosol) was “two metabolites (M9A and M9) were detected”, the “converted to the two sulfate conjugates” value ([2]; large-scale incubation with PAPS) was “approximately 23%” and the Metabolites detected [3] was “two major metabolites, M5 and M6, were detected”. For the same compound, the “lesions at necropsy versus vehicle” value ([4]; 10 mg/kg, evaluated three times) was “fewer lesions at necropsy than those mice dosed with vehicle”, the “lesions found per animal” value ([4]; Study 1, 10 mg/kg oral daily) was “one lesion” and the “mice with lesion regression” value ([4]; Study 1, 10 mg/kg oral daily) was “four of six mice”. The “mice with any lesions at necropsy” value ([4]; Study 1, 10 mg/kg oral daily, vehicle: four of four mice) was “two of six mice”, the “Number of oocytes (mean ± SEM)” value [5] was 13.86 ± 0.77 and the “Neurogranin mRNA (mean ± stdev)” value (Female Mongolian gerbils) was 0.0 arbitrary units.
